Results published in US7635572B2, “Methods for conducting assays for enzyme activity on protein microarrays” (Life Technologies Corporation, priority 2004, dated 2009).

Columns and labels:
Experiment in all cases: Further analysis of a plurality of inhibitors and a plurality of kinases on microarray (Example IX, Table 5);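 further: inhibition of each kinase by the inhibitors is given as a qualitative level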;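 on Inhibition level, Homo sapiens in: level 0 none or unclear Level 1 marginal Level 2 substantial inhibition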;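 on Inhibition level, Homo sapiens, o: level 0 none or unclear Level 1 marginal Level 2 substantial inhibition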;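 on Inhibition level, LOC57118: level 0 none or unclear then 1 little or marginal then 2 substantial inhibition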;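 on Inhibition level, TLK2: level 0 none or unclear Level 1 marginal Level 2 substantial inhibition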
Format in all cases: biochemical
[1] = system: plurality of kinases (Table 5); settings: for Inhibition level, Homo sapiens c: plate F4; for Inhibition level, Homo sapiens, o: plate F5; for Inhibition level, Homo sapiens, B: plate F7; for Inhibition level, Homo sapiens in: plate F9; for Inhibition level, Homo sapiens p: plate F10
[2] = target: T1, plurality of kinases (Table 5) (Homo sapiens, UniProt P51813); settings: plate B12; inhibitor 100 uM
T1 sequence (P51813 1-675): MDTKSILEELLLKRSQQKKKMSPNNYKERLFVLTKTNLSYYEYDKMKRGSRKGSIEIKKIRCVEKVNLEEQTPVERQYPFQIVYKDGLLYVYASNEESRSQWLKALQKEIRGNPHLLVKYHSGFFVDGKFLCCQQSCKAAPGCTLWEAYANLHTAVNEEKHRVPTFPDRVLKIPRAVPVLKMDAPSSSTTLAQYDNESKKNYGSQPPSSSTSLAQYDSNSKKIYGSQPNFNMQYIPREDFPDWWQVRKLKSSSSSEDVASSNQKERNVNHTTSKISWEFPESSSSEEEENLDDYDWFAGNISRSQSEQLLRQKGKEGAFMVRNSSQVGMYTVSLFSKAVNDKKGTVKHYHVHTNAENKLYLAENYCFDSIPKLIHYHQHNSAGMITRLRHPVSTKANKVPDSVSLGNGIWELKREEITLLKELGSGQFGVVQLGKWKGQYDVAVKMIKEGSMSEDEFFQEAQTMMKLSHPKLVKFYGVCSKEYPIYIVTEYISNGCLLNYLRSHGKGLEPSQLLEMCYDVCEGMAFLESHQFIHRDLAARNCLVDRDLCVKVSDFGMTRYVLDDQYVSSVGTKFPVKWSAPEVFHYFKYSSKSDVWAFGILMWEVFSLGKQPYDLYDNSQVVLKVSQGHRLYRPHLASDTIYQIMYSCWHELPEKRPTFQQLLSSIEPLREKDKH

[3] = target: T2, plurality of kinases (Table 5) (Homo sapiens, UniProt Q99759); settings: plate A1
T2 sequence (Q99759 1-626): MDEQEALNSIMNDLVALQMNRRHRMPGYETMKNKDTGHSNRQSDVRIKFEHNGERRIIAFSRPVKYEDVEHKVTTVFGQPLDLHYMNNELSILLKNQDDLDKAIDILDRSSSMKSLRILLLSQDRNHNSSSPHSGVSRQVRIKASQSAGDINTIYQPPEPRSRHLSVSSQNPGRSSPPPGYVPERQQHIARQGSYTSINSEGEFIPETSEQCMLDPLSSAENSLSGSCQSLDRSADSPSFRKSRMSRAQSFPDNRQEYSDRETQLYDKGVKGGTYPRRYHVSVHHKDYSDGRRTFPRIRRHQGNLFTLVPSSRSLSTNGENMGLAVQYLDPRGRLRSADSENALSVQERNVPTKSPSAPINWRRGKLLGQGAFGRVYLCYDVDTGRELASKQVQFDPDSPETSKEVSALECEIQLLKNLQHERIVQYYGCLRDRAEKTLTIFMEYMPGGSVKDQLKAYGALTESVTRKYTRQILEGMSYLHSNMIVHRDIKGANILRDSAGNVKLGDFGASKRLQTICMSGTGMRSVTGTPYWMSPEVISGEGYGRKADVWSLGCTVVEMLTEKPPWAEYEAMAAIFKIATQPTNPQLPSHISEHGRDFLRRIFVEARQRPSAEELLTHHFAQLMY

[4] = target: T3, plurality of kinases (Table 5) (Homo sapiens, UniProt P54762); settings: plate B8
T3 sequence (P54762 18-984): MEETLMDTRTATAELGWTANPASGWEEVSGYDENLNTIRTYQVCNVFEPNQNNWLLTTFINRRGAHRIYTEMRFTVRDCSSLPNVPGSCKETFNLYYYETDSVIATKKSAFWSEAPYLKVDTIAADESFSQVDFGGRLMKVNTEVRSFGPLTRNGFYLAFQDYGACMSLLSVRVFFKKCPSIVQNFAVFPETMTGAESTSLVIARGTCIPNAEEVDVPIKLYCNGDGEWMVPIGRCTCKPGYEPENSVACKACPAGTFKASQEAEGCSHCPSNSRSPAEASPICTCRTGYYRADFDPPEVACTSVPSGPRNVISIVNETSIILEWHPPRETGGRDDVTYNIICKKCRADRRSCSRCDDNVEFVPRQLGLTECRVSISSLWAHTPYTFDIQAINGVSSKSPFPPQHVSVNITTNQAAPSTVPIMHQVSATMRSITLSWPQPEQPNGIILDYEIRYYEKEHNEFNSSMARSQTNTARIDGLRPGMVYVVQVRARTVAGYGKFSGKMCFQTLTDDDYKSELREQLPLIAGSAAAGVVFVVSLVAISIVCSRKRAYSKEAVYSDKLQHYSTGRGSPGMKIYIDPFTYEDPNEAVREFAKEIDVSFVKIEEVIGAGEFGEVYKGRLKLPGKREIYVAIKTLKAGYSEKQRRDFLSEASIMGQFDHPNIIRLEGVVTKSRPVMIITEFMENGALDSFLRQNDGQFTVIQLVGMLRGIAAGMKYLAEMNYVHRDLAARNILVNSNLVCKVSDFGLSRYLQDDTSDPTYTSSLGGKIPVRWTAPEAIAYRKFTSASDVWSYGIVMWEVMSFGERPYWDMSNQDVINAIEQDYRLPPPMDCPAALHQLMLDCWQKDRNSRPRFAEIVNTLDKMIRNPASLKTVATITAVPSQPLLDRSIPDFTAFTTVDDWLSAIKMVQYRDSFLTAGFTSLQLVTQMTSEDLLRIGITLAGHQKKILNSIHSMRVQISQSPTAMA

[5] = target: plurality of kinases (Table 5) (Homo sapiens, UniProt Q86UE8); settings: plate C8
plurality of kinases (Table 5) (Homo sapiens, UniProt Q86UE8), sequence (Q86UE8 whole entry): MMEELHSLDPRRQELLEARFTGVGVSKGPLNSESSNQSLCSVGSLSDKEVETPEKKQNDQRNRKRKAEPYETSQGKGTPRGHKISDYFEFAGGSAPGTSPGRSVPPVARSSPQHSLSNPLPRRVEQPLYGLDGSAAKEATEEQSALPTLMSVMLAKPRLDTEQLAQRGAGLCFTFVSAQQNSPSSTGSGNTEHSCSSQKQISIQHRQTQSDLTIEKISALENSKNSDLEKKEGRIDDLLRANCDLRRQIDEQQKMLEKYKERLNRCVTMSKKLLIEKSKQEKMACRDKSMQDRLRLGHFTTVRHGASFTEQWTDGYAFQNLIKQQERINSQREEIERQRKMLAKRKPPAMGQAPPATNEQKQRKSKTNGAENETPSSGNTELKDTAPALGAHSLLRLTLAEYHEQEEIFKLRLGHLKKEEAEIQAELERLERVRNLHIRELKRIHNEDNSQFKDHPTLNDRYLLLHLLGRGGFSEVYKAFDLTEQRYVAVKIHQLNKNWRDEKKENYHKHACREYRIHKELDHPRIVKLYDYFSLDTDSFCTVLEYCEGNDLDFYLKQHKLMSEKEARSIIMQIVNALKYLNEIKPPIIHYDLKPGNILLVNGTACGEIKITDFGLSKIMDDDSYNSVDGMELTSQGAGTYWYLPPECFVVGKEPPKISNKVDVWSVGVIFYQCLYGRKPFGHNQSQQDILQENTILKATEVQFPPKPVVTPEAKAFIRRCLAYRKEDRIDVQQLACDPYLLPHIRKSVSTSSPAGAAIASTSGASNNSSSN

[6] = target: plurality of kinases (Table 5) (Homo sapiens, UniProt Q8IU85); settings: plate D2; inhibitor 100 uM
plurality of kinases (Table 5) (Homo sapiens, UniProt Q8IU85), sequence (Q8IU85 whole entry): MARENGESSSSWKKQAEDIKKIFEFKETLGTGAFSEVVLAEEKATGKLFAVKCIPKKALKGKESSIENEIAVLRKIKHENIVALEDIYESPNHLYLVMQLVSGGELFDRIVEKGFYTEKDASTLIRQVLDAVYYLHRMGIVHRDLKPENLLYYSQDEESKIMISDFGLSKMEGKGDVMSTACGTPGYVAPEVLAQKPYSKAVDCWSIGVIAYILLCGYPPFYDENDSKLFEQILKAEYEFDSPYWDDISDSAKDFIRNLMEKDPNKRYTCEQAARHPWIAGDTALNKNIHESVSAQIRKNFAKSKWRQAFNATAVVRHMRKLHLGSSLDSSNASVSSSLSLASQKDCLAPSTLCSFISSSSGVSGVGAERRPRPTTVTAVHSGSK

Row | Structure (SMILES) | Inhibition level, Homo sapiens, S ([1]; plate E9, inhibitor 100 uM) | Inhibition level, Homo sapiens, s ([1]; plate E11, inhibitor 100 uM) | Inhibition level, Homo sapiens, s ([1]; plate F3, inhibitor 100 uM) | Inhibition level, Homo sapiens c ([1]; inhibitor 100 uM) | Inhibition level, Homo sapiens, o ([1]; inhibitor 100 uM) | Inhibition level, Homo sapiens, S ([1]; plate F6, inhibitor 100 uM) | Inhibition level, Homo sapiens, B ([1]; inhibitor 100 uM) | Inhibition level, Homo sapiens, s ([1]; plate F8, inhibitor 100 uM) | Inhibition level, Homo sapiens in ([1]; inhibitor 100 uM) | Inhibition level, Homo sapiens p ([1]; inhibitor 100 uM) | Inhibition level, BMX [2] | Inhibition level, MAP3K3 ([3]; inhibitor 100 uM) | Inhibition level, EPHB1 ([4]; inhibitor 100 uM) | Inhibition level, TLK2 ([5]; inhibitor 100 uM) | Inhibition level, LOC57118 [6] | also measured
1 | Cn1cc(C2=C(c3cn(CCCSC(=N)N)c4ccccc34)C(=O)NC2=O)c2ccccc21 [Ro-31-8220] | 0 | 2 | 2 | 2 | 2 | 2 | 0 | 0 | 0 | 2 | 2 | 0 | 0 | 1 | 0 | Inhibition level, Homo sapiens, s ([1]; plate F3, Ro-31-8220, conc. not given): 2; Inhibition level, Homo sapiens, o ([1]; Ro-31-8220, conc. not given): 0; Inhibition level, Homo sapiens, S ([1]; plate F6, Ro-31-8220, conc. not given): 0; Inhibition level, Homo sapiens, B ([1]; Ro-31-8220, conc. not given): 2; Inhibition level, Homo sapiens, s ([1]; plate F8, Ro-31-8220, conc. not given): 2; Inhibition level, Homo sapiens in ([1]; Ro-31-8220, conc. not given): 2; Inhibition level, Homo sapiens p ([1]; Ro-31-8220, conc. not given): 2; Inhibition level, MAP3K3 ([3]; Ro-31-8220 90 uM): 2; Inhibition level, EPHB1 ([4]; Ro-31-8220, conc. not given): 2; Inhibition level, TLK2 ([5]; Ro-31-8220 90 uM): 2
2 | CC(=O)c1c(O)c(C)c(O)c(Cc2c(O)c3c(c(C(=O)/C=C/c4ccccc4)c2O)OC(C)(C)C=C3)c1O [Rottlerin (Mallotoxin)] | 2 | 2 | 0 | 0 | 0 | 0 | 2 | 0 | 0 | 2 | 1 | 2 | 1 | 2 | 0 | 
